Laboratory results from patent US20150197492A1, “NOVEL INDENO[1,2-c]QUINOLIN-11-ONE DERIVATIVES, PREPARATION METHOD AND APPLICATION THEREOF” (National Defense Medical Center, priority 2014, published 2015).

Key:
Assay in all cases: cells
Type in all cases: cell-based
[1] = system: MOLT-4; conditions: MOLT-4 (Leukemia), 10 μM, 48 hours
[2] = system: RPMI-8226; conditions: RPMI-8226 (Leukemia), 10 μM, 48 hours
[3] = system: A549/ATCC; conditions: A549/ATCC (Non-Small Cell Lung Cancer), 10 μM, 48 hours
[4] = system: NCI-H322M; conditions: NCI-H322M (Non-Small Cell Lung Cancer), 10 μM, 48 hours
[5] = system: NCI-H522; conditions: NCI-H522 (Non-Small Cell Lung Cancer), 10 μM, 48 hours
[6] = system: HCC-2998; conditions: HCC-2998 (Colon Cancer), 10 μM, 48 hours
[7] = system: HCT-15; conditions: HCT-15 (Colon Cancer), 10 μM, 48 hours
[8] = system: SF-268; conditions: SF-268 (CNS Cancer), 10 μM, 48 hours
[9] = system: SNB-19; conditions: SNB-19 (CNS Cancer), 10 μM, 48 hours
[10] = system: SNB-75; conditions: SNB-75 (CNS Cancer), 10 μM, 48 hours
[11] = system: LOX IMVI; conditions: LOX IMVI (Melanoma), 10 μM, 48 hours
[12] = system: MALME-3M; conditions: MALME-3M (Melanoma), 10 μM, 48 hours
[13] = system: M14; conditions: M14 (Melanoma), 10 μM, 48 hours
[14] = system: MDA-MB-435; conditions: MDA-MB-435 (Melanoma), 10 μM, 48 hours
[15] = system: UACC-257; conditions: UACC-257 (Melanoma), 10 μM, 48 hours
[16] = system: UACC-62; conditions: UACC-62 (Melanoma), 10 μM, 48 hours
[17] = system: OVCAR-3; conditions: OVCAR-3 (Ovarian Cancer), 10 μM, 48 hours
[18] = system: OVCAR-4; conditions: OVCAR-4 (Ovarian Cancer), 10 μM, 48 hours
[19] = system: OVCAR-5; conditions: OVCAR-5 (Ovarian Cancer), 10 μM, 48 hours
[20] = system: OVCAR-8; conditions: OVCAR-8 (Ovarian Cancer), 10 μM, 48 hours
[21] = system: ACHN; conditions: ACHN (Renal Cancer), 10 μM, 48 hours
[22] = system: CAKI-1; conditions: CAKI-1 (Renal Cancer), 10 μM, 48 hours
[23] = system: TK-10; conditions: TK-10 (Renal Cancer), 10 μM, 48 hours
[24] = system: UO-31; conditions: UO-31 (Renal Cancer), 10 μM, 48 hours
[25] = system: PC-3; conditions: PC-3 (Prostate Cancer), 10 μM, 48 hours
[26] = system: MCF7; conditions: MCF7 (Breast Cancer), 10 μM, 48 hours
[27] = system: MDA-MB-231/ATCC; conditions: MDA-MB-231/ATCC (Breast Cancer), 10 μM, 48 hours
[28] = system: MDA-MB-468; conditions: MDA-MB-468 (Breast Cancer), 10 μM, 48 hours
[29] = system: SK-OV-3; conditions: SK-OV-3 (Ovarian Cancer), 10 μM, 48 hours

Row | Structure (SMILES) | growth percentage [1] [%] | growth percentage [2] [%] | growth percentage [3] [%] | growth percentage [4] [%] | growth percentage [5] [%] | growth percentage [6] [%] | growth percentage [7] [%] | growth percentage [8] [%] | growth percentage [9] [%] | growth percentage [10] [%] | growth percentage [11] [%] | growth percentage [12] [%] | growth percentage [13] [%] | growth percentage [14] [%] | growth percentage [15] [%] | growth percentage [16] [%] | growth percentage [17] [%] | growth percentage [19] [%] | growth percentage [20] [%] | growth percentage [21] [%] | further results
1 | O=C1c2cc(Cl)ccc2-c2c(SCCO)nc3ccccc3c21 [SJ-25, 6-(2-Hydroxyethylthio)-9-chloro-11H-indeno[1,2-c]quinolin-11-one] | 59.49 | 62.28 | 76.42 | 73.47 | 68.89 | 96.27 | 80.10 | 96.53 | 89.19 | 66.06 | 68.41 | 107.23 | 98.89 | 95.15 | 106.91 | 84.47 | 89.42 | 112.54 | 90.21 | 88.12 | growth percentage [18]: 73.19%; growth percentage [22]: 41.86%; growth percentage [23]: 99.82%; growth percentage [24]: 56.23%; growth percentage [25]: 58.35%; growth percentage [26]: 67.82%; growth percentage [27]: 72.56%; growth percentage [28]: 77.36%
2 | O=C1c2cc(Cl)ccc2-c2c(O)nc3ccccc3c21 [SJ-26, 6-Hydroxy-9-chloro-11H-indeno[1,2-c]quinolin-11-one] | 95.10 | 90.60 | 104.88 | 90.72 | 92.22 | 102.24 | 108.54 | 106.64 | 99.28 | 80.33 | 86.91 | 103.37 | 108.50 | 100.35 | 106.31 | 95.17 | 117.80 | 126.77 | 107.63 | 104.75 | growth percentage [18]: 80.74%; growth percentage [22]: 71.62%; growth percentage [23]: 126.63%; growth percentage [24]: 70.50%; growth percentage [25]: 93.44%; growth percentage [26]: 68.09%; growth percentage [27]: 86.98%; growth percentage [28]: 80.08%
3 | COc1nc2ccccc2c2c1-c1ccc(Cl)cc1C2=O [SJ-27, 6-Methoxy-9-chloro-11H-indeno[1,2-c]quinolin-11-one] | 110.33 | 90.30 | 99.70 | 99.80 | 95.89 | 104.46 | 94.98 | 113.64 | 96.35 | 59.75 | 116.91 | 107.54 | 96.50 | 100.31 | 98.20 | 74.08 | 111.89 | 96.81 | 98.75 | 90.83 | growth percentage [29]: 119.79%; growth percentage [22]: 90.65%; growth percentage [24]: 55.69%; growth percentage [25]: 74.44%; growth percentage [26]: 71.98%; growth percentage [27]: 74.61%; growth percentage [28]: 99.51%
4 | O=C1c2cc(Cl)ccc2-c2c(Cl)nc3ccccc3c21 [TC-XCl-1, 6,9-Dichloro-11H-indeno[1,2-c]quinolin-11-one] | 70.83 | 92.83 | 108.98 | 95.38 | 89.37 | 98.52 | 114.88 | 117.27 | 101.30 | 82.91 | 84.23 | 102.06 | 109.79 | 100.46 | 127.99 | 94.45 | 119.93 | 137.00 | 101.08 | 111.67 | growth percentage [18]: 94.13%; growth percentage [22]: 75.67%; growth percentage [23]: 138.45%; growth percentage [24]: 80.62%; growth percentage [25]: 92.73%; growth percentage [26]: 74.25%; growth percentage [27]: 87.66%; growth percentage [28]: 107.92%
